Where a SMILES comes first, the peptide text is derived from it.
What was measured:
[1] = test system: RMA-HHD target cells pulsed with peptide; conditions: for CTL cytotoxicity to target cell presenting each peptide: immunogenicity of each peptide in each pool, FIG. 2; for CTL cytotoxicity to target cell presenting each peptide / induction of cytotoxic T cells: 51Cr release; for induction of cytotoxic T cells: peptide-bound liposome prepared from the single peptide, FIG. 3
[2] = test system: T cells that produce interferon gamma (IFN-γ) antigen-specifically; experiment: ELISPOT (IFN-γ) with splenocytes of immunized mouse; format: in vivo, HHD mouse; conditions: for IFN-γ production due to the stimulation with each peptide: immunogenicity of each peptide in each pool, FIG. 2
[3] = test system: recombinant vaccinia virus that expresses HCV-NS3 gene (VV-NS3); design: species or system HHD mouse; conditions: mouse, in vivo
[4] = immunization with recombinant virus VV-NS3, ELISPOT, FIG. 7

| Molecule | IFN-γ production due to the stimulation with each peptide ([2]; ELISPOT) | CTL cytotoxicity to target cell presenting each peptide [1] | vaccine effect of peptide-bound liposome prepared from single peptide [3] | induction of cytotoxic T cells [1] | other results |
| --- | --- | --- | --- | --- | --- |
| IMACMSADL (Hepatitis C virus) [#19-3A] | – | – | – | – | vaccine effect, comparison of #19 and #19-3A bound to liposome ([1]; liposome inoculated twice, FIG. 11): higher vaccine effect |
| CC[C@H](C)[C@H](N)C(=O)N[C@@H](CCSC)C(=O)N[C@H](C(=O)N[C@@H](CS)C(=O)N[C@@H](CCSC)C(=O)N[C@@H](CO)C(=O)N[C@@H](C)C(=O)N[C@@H](CC(=O)O)C(=O)N[C@@H](CC(C)C)C(=O)O)[C@@H](C)O [peptide #19, Ile Met Thr Cys Met Ser Ala Asp Leu] (H-IMTCMSADL-OH) | confirmed | strongly induced antigen-specific CTL | remarkable vaccine effect | – | – |
| cys Met Ser Ala Asp Leu Glu Val Val (CMSADLEVV; Hepatitis C virus) [compound 17] | confirmed | strongly induced antigen-specific CTL | – | confirmed | – |
| CSCC[C@H](NC(=O)CN)C(=O)N[C@@H](Cc1ccccc1)C(=O)N[C@@H](CC(=O)O)C(=O)N[C@@H](CO)C(=O)N[C@@H](CO)C(=O)N[C@H](C(=O)N[C@@H](CC(C)C)C(=O)N[C@@H](CS)C(=O)O)C(C)C [peptide #13, Gly Met Phe Asp Ser Ser Val Leu Cys] (H-GMFDSSVLC-OH) | confirmed | strongly induced antigen-specific CTL | remarkable vaccine effect | confirmed | – |
| CC[C@H](C)[C@H](NC(=O)[C@H](CC(C)C)NC(=O)[C@H](CS)NC(=O)[C@H](CCCCN)NC(=O)[C@H](Cc1c[nH]c2ccccc12)NC(=O)[C@H](CCSC)NC(=O)[C@@H](N)CCC(N)=O)C(=O)N[C@@H](CCCNC(=N)N)C(=O)N[C@@H](CC(C)C)C(=O)O [compound 8, Gln Met Trp Lys Cys Leu Ile Arg Leu] | – | strongly induced antigen-specific CTL | – | – | – |
| CC[C@H](C)[C@H](NC(=O)[C@@H](NC(=O)[C@H](CO)NC(=O)[C@@H](NC(=O)[C@H](CC(=O)O)NC(=O)[C@H](CC(C)C)NC(=O)CN)C(C)C)C(C)C)C(=O)N1CCC[C@H]1C(=O)N[C@H](C(=O)O)[C@@H](C)O [compound 14, Gly Leu Asp Val Ser Val Ile Pro Thr] (H-GLDVSVIPT-OH) | confirmed | strongly induced antigen-specific CTL | – | – | – |
| CSCC[C@H](NC(=O)[C@@H](N)Cc1ccc(O)cc1)C(=O)N[C@@H](CC(N)=O)C(=O)N[C@H](C(=O)N1CCC[C@H]1C(=O)NCC(=O)N[C@@H](CC(C)C)C(=O)N1CCC[C@H]1C(=O)N[C@H](C(=O)O)C(C)C)[C@@H](C)O [peptide #3, Tyr Met Asn Thr Pro Gly Leu Pro Val] (H-YMNTPGLPV-OH) | confirmed | strongly induced antigen-specific CTL | remarkable vaccine effect | – | immunogenicity of liposome-bound peptide ([2]; F1 mouse (HHD male x C57BL/6 female) expressing HLA-A*0201 and H-2b, ELISPOT, FIG. 5): high immunogenicity of the same level as that of mouse epitope 1630-1637; boost effect on immunization with VV-NS3 [2, 4]: absent; immunogenicity of peptide on immunization with VV-NS3 [2, 4]: not exhibited; immunogenicity of peptide on immunization with whole NS3 ([2]; immunization with recombinant viruses Adex1CA3269 and VV-NS3, peptide not liposome-bound, FIG. 6): low immunogenicity and low; IFN-γ production ([2]; peptide-bound liposome prepared from the single peptide, ELISPOT, FIG. 3): particularly remarkable |
| CC[C@H](C)[C@H](NC(=O)[C@H](CS)NC(=O)[C@@H](NC(=O)[C@H](C)NC(=O)[C@H](CC(C)C)NC(=O)[C@@H](N)Cc1ccccc1)[C@@H](C)O)C(=O)N[C@@H](CC(N)=O)C(=O)NCC(=O)N[C@H](C(=O)O)C(C)C [compound 23, Phe Leu Ala Thr Cys Ile Asn Gly Val] (H-FLATCINGV-OH) | confirmed | strongly induced antigen-specific CTL | – | confirmed | – |

Source: US9814785B2, “Hepatitis C virus liposome vaccine” (Saitama Medical University, priority 2010, dated 2017)
